Read-outs that look alike come from different tables or passages of the source.
Assays:
[1] = cells; settings: Homo sapiens, MCF-10A, read-out: MCF10A I50
[2] = biological target: H1047R PIK3CA enzyme (Homo sapiens, UniProt P42336, H1047R); assay: ADP-Glo Biochemical PIK3CA Kinase Assay
[3] = ADP-Glo biochemical PIK3CA kinase assay

Sequence of H1047R PIK3CA enzyme (P42336 whole entry H1047R): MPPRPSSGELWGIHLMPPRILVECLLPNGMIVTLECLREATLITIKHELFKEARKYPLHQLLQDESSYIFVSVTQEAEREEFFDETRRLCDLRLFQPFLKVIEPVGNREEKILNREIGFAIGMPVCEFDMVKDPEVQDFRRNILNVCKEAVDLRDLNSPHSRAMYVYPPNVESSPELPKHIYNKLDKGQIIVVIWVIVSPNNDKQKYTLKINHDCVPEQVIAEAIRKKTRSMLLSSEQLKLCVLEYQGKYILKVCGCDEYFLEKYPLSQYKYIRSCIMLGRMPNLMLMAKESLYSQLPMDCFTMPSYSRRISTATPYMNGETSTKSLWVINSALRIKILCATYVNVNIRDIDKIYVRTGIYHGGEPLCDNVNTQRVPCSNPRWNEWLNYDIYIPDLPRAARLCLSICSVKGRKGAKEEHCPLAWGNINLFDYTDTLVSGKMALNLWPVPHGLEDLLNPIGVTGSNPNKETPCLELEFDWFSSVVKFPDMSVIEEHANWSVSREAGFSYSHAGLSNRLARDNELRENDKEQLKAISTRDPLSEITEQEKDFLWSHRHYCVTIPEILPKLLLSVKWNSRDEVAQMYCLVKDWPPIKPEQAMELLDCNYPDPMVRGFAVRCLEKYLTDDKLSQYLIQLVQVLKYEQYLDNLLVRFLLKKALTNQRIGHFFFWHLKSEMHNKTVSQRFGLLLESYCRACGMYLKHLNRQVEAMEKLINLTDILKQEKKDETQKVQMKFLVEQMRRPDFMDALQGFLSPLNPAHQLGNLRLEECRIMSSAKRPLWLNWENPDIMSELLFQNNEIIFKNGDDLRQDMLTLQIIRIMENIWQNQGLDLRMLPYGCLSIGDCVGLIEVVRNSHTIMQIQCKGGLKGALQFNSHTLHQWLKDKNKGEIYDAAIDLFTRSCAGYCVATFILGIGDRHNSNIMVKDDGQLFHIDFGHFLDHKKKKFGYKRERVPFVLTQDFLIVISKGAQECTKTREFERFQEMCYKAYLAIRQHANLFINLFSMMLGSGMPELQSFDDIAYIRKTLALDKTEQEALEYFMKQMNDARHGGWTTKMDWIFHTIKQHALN
Sequence of H1047R PIK3CA enzyme (P27986 whole entry partner): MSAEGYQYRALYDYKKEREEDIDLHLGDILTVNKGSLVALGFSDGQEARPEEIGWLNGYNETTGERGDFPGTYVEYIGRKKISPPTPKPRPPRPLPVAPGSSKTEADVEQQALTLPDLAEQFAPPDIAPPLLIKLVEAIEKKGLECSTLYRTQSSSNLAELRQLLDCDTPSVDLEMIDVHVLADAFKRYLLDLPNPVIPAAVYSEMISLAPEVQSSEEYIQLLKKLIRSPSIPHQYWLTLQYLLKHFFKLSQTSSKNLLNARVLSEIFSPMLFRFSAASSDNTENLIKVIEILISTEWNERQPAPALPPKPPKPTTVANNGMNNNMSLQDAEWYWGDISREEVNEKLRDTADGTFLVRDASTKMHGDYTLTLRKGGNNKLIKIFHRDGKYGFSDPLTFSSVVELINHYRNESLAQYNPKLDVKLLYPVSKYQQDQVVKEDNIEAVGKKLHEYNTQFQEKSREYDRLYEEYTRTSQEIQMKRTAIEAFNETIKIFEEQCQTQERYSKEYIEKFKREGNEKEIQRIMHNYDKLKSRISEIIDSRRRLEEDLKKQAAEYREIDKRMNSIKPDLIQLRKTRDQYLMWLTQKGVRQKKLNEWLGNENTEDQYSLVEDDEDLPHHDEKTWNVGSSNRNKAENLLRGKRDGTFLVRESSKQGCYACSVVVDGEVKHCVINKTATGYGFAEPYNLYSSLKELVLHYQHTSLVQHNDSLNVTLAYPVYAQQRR

Structure (SMILES) | IC50 [1] | IC50 [2] | IC50 [2, 3]
Cc1ccccc1Nc1ncc(C(=O)N[C@@H]2CC(=O)N(C)C2)cc1NC(=O)c1csc2ccccc12 (racemic) [I-326] | 5000 to 10000 nM | 100 to 500 nM | –
C[C@@H](NC(=O)c1cnc(N2CCOc3ccccc32)c(NC(=O)c2csc3ccccc23)c1)c1ccccn1 (racemic) [I-337] | 5000 to 10000 nM | 100 to 500 nM | –
O=C1C[C@@H](CNC(=O)c2cc(F)cc(C(F)(F)F)c2)[C@H](c2cc(F)ccc2Cl)N1 (racemic) [I-801, N-{[(2R,3S)-2-(2-chloro-5-fluorophenyl)-5-oxopyrrolidin-3-yl]methyl}-3-fluoro-5-(trifluoromethyl)benzamide] | 1000 to 5000 nM | 100 to 500 nM | –
Cc1ccccc1Nc1ncc(C(=O)N[C@@H]2CC(=O)N(C)C2)cc1NC(=O)c1csc2ccccc12 (single isomer, unassigned) [I-435] | 5000 to 10000 nM | – | ≤ 100 nM
Cc1ccccc1Nc1ncc(C(=O)N[C@H]2CCN(C)C2)cc1NC(=O)c1cc(F)cc(C(F)(F)F)c1 (stereo in doubt) [I-67] | 10000 to 36000 nM | 500 to 1000 nM | –
C[C@@H](NC(=O)c1cnc(N2CCOc3ccccc32)c(NC(=O)c2csc3ccccc23)c1)c1cccnc1 (stereo in doubt) [I-257] | 5000 to 10000 nM | ≤ 100 nM | –
C[C@H](NC(=O)c1cnc(N2CCOc3ccccc32)c(NC(=O)c2csc3ccccc23)c1)c1cccnc1 (stereo in doubt) [I-258] | 10000 to 36000 nM | 100 to 500 nM | –
C[C@@H](NC(=O)c1cnc(N2CCOc3ccccc32)c(NC(=O)c2csc3ccccc23)c1)c1ccncc1 (stereo in doubt) [I-314] | 5000 to 10000 nM | 100 to 500 nM | –
C[C@H](NC(=O)c1cnc(N2CCOc3ccccc32)c(NC(=O)c2csc3ccccc23)c1)c1ccncc1 (stereo in doubt) [I-315] | 10000 to 36000 nM | 500 to 1000 nM | –
CNC(=O)c1cnc(Nc2ccccc2C)c(NC(=O)c2cc(F)cc(C(F)(F)F)c2)c1 [I-1] | 5000 to 10000 nM | 500 to 1000 nM | –
CNC(=O)c1cnc(Nc2ccccc2C)c(NC(=O)c2cc(Cl)cc(Cl)c2)c1 [I-6] | 5000 to 10000 nM | 500 to 1000 nM | –
Cc1ccccc1Nc1ncc(-c2cncnc2)cc1NC(=O)c1cc(F)cc(C(F)(F)F)c1 [I-7] | 5000 to 10000 nM | 100 to 500 nM | –
CNC(=O)c1cnc(Nc2ccccc2C)c(NS(=O)(=O)c2ccc(F)cc2C)c1 [I-8] | 1000 to 5000 nM | 100 to 500 nM | –
Cc1ccccc1Nc1ncccc1NC(=O)c1cc(F)cc(C(F)(F)F)c1 [I-11] | 10000 to 36000 nM | 1000 to 10000 nM | –
Cc1ccccc1Nc1ncc(C2CC2)cc1NC(=O)c1cc(F)cc(C(F)(F)F)c1 [I-21] | 10000 to 36000 nM | 1000 to 10000 nM | –
CNC(=O)c1cnc(Nc2ccccc2C)c(NC(=O)C(O)c2cccc(F)c2)c1 (stereo not shown) [I-27] | 1000 to 5000 nM | 500 to 1000 nM | –
Cc1ccccc1Nc1ncc(C(N)=O)cc1NC(=O)c1cc(F)cc(C(F)(F)F)c1 [I-28] | 5000 to 10000 nM | 500 to 1000 nM | –

Structure (SMILES) | IC50 [1] | IC50 [2] | IC50 [2, 3]
CNC(=O)c1cnc(Nc2ccccc2C)c(NC(=O)Cc2ccc(O)c(O)c2)c1 [I-30] | 5000 to 10000 nM | 500 to 1000 nM | –
CNC(=O)c1cnc(Nc2ccc(C)cc2)c(NC(=O)c2cc(F)cc(C(F)(F)F)c2)c1 [I-36] | 10000 to 36000 nM | 500 to 1000 nM | –
CNC(=O)c1cnc(Nc2ccccc2C)c(NC(=O)c2csc3ccccc23)c1 [I-41] | 10000 to 36000 nM | 100 to 500 nM | –
Cc1ccccc1Nc1ncc(C(C)(C)O)cc1NC(=O)c1cc(F)cc(C(F)(F)F)c1 [I-42] | 10000 to 36000 nM | 1000 to 10000 nM | –
Cc1ccccc1Nc1ncc(-c2cccc(S(N)(=O)=O)c2)cc1NC(=O)c1cc(F)cc(C(F)(F)F)c1 [I-45] | 1000 to 5000 nM | 100 to 500 nM | –
Cc1ccccc1Nc1ncc(-c2ccc(C#N)cc2)cc1NC(=O)c1cc(F)cc(C(F)(F)F)c1 [I-46] | 1000 to 5000 nM | 100 to 500 nM | –
Cc1ccccc1Nc1ncc(C(=O)NC2CS(=O)(=O)C2)cc1NC(=O)c1cc(F)cc(C(F)(F)F)c1 [I-51] | < 1000 nM | ≤ 100 nM | –
Cc1ccccc1Nc1ncc(C(=O)NCc2ccnn2C)cc1NC(=O)c1cc(F)cc(C(F)(F)F)c1 [I-52] | 1000 to 5000 nM | 100 to 500 nM | –
Cc1ccccc1Nc1ncc(C(=O)NCc2cnn(C)c2)cc1NC(=O)c1cc(F)cc(C(F)(F)F)c1 [I-53] | 5000 to 10000 nM | 100 to 500 nM | –
Cc1ccccc1Nc1ncc(NC(=O)OC(C)(C)C)cc1NC(=O)c1cc(F)cc(C(F)(F)F)c1 [I-54] | 10000 to 36000 nM | 1000 to 10000 nM | –
COc1ncc(-c2cnc(Nc3ccccc3C)c(NC(=O)c3cc(F)cc(C(F)(F)F)c3)c2)cn1 [I-57] | 1000 to 5000 nM | 500 to 1000 nM | –
Cc1ccccc1Nc1ncc(Br)cc1NC(=O)c1cc(F)cc(C(F)(F)F)c1 [I-60] | 1000 to 5000 nM | 1000 to 10000 nM | –
Cc1ccccc1Nc1ncc(C(=O)NCc2nccs2)cc1NC(=O)c1cc(F)cc(C(F)(F)F)c1 [I-65] | 1000 to 5000 nM | 100 to 500 nM | –
Cc1ccccc1Nc1ncc(-c2cncc(C#N)c2)cc1NC(=O)c1cc(F)cc(C(F)(F)F)c1 [I-75] | 1000 to 5000 nM | 100 to 500 nM | –
CC1COCCN1c1ncc(C(=O)N[C@H]2C[C@@H](C(N)=O)C2)cc1NC(=O)c1csc2ccccc12 (stereo partly shown) [I-770] | – | – | 1000 to 10000 nM
COC1CN(c2ncc(C(=O)N[C@H]3C[C@@H](C(C)=O)C3)cc2NC(=O)c2csc3ccccc23)C1 [I-771] | – | – | 1000 to 10000 nM

Reference: US20250090540A1, “PI3K-ALPHA INHIBITORS AND METHODS OF USE THEREOF” (Relay Therapeutics, Inc., priority 2021, published 2025)
